For experiment [1], the system named is Ishikawa endometrial adenocarcinoma cells. The experiment is described as follows: Cell proliferation assay in endometrial cells. The conditions noted are these: 7 days, 750 μM VPA; for cell numbers / proliferation: 10 nM OH-Tam, 100 pM or 1 nM E2. The format is cell-based. An excerpt: (§1) Cell Culture and Ligands. MCF-7 cells were provided by C. Walker (MD Anderson Cancer Center, Houston, Tex.) and were routinely cultured in IMEM (Invitrogen, Grand Island, N.Y.) with 10% fetal calf serum (FBS) (Hyclone, Logan, Utah). Ishikawa cells were also provided by C. Walker and cultured in DMEM/Ham's F12 with 10% FBS. T47-D cells were obtained from ATCC and were routinely cultured in DMBM (Invitrogen) plus 10% FBS. ZR-75-1 cells were provided by B. Hahn (University of California, San Francisco) and were routinely cultured in RPMI (Invitrogen) plus 10% PBS. MCF-7/neo and MCF-7/HER2 (clone 18) cells were also obtained from B. Hahn and cultured in DMEM plus 10% FBS. MCF-7aro cells were provided by S. Chen (Beckham Research Institute of the City of Hope) and routinely grown in DMEM/Ham's F12 plus 10% FBS. For all experiments cells were switched to phenol red-free media containing 5% charcoal/dextran-stripped FBS (Hyclone) for 3-5 days prior to start of the experiment. Cells were treated with ligands in media containing 2-5% stripped PBS for the indicated times.
(§2) Cell Proliferation Assays. Cells growing in 24-well dishes were treated with ligands in triplicate for the indicated times. Cells were trypsinized and counted electronically with a Coulter Counter (Coulter Electronics, Hialeah, Fla.). Alternatively, cell proliferation was measured using a fluorescent DNA-binding assay, CyQUANT (Invitrogen) in which cells were treated with ligands in triplicate in 96-well plates for the indicated times and assayed according to the manufacturer's instructions.

Experiment [2] concerns endogenous ERα at estrogen response element (ERE). The experiment can be described thus: ERE-Luc luciferase reporter gene transfection assay. The conditions noted are these: for ERE-Luc transcription: 24 hours. On the technique in general: A reporter such as luciferase makes a cellular process visible.
Experimental: MCF-7 cells growing in 12-well dishes were transfected with ERE-Luc and β-galactosidase reporter gene using Lipofectamine 2000 transfection reagent (Invitrogen) according to manufacturer's instructions. […] Five hours after transfection, cells were treated in triplicate with ligands and harvested 24 hours later using a lysis buffer containing 100 MM TrisHCl, 1% Triton-X100 and 1.μ/ml dithiothreitol. Reporter gene activity was measured using assay kits for Luciferase (Promega, Madison, Wis.) and β-galactosidase (Tropix, Bedford, Mass.), according to manufacturer's instructions.
A further experiment concerns Bcl-2. The experiment can be described thus: Immunoblotting of Bcl-2 protein in MCF-7 cells. The class given is cell-based, human. The conditions noted are these: 72 hours. As to the method:
(§3) Immunoblotting. MCF-7 cells were grown in 100 mm dishes and treated with ligands in triplicate. […] Whole cell extracts were separated by SDS-PAGE, transferred to a nitrocellulose membrane, and immunoblotted using standard methods with the following antibodies: ERα, Bik, Bcl-2, and β-tubulin (all from Santa Cruz Biotechnology, Santa Cruz, Calif.) and cyclin D1 (Zymed, San Francisco, Calif.).
Background: In western blotting, separated proteins are transferred to a membrane and probed.

For experiment [3], the system named is MCF-7 cells. The experiment can be described thus: Cell proliferation assay (Coulter Counter or CyQUANT fluorescent DNA-binding assay) in MCF-7 cells. The class given is cell-based, human. The conditions noted are these: for E2-stimulated growth, antiestrogen alone / E2-stimulated growth, antiestrogen plus VPA: 100 pM E2, 7 days, fulvestrant at higher concentrations; for E2-stimulated growth, antiestrogen plus VPA: plus 750 μM VPA; for effect of HDAC inhibitor on antiproliferative action of tamoxifen: range of HDAC inhibitor doses with 10 nM OH-Tam.
Excerpt: as §1, §2

Experiment [4] relates to MCF-7 cells. The experiment is described as follows: Flow cytometry cell cycle distribution (DNA content). The format is cell-based, human. The conditions noted are these: 48 hours. The procedure: Flow cytometry. MCF-7 cells growing in 100 mm dishes were treated with ligands for 48 hours, then trypsinized and fixed in 70% ethanol and stained with […] propidium iodide (Roche, Nutley, N.J.). DNA content was obtained by measuring 10,000 events on a FACScalibur flow cytometer (BD Biosciences, San Jose, Calif.). The percentages of cells in each phase of the cell cycle were determined using the Watson (Pragmatic) model analyzed by FlowJo flow cytometry software (Treestar, San Carlos, Calif.).
A general note: Flow cytometry measures light scatter and fluorescence of single cells or particles in a stream.

Another experiment deals with MCF-7/HER2 cells. The experiment is described as follows: Cell proliferation assay in MCF-7 cells overexpressing HER2/neu. The format is cell-based, human. The conditions noted are these: 10 pM E2, 750 μM VPA and/or 10 nM OH-Tam, 7 days.
Excerpt: as §1, with “Cells were treated with ligands in media containing 2-5% stripped PBS for the indicated times.” left out
(§4) Cell Proliferation Assays. […] Cells were trypsinized and counted electronically with a Coulter Counter (Coulter Electronics, Hialeah, Fla.). Alternatively, cell proliferation was measured using a fluorescent DNA-binding assay, CyQUANT (Invitrogen) in which cells were treated with ligands in triplicate in 96-well plates for the indicated times and assayed according to the manufacturer's instructions.

A further experiment deals with MCF-7aro cells. The experiment can be described thus: Cell proliferation assay in MCF-7 cells with stably expressed aromatase. Conditions: 5 days. The format is cell-based, human.
Excerpt: as §1, with “Cells were treated with ligands in media containing 2-5% stripped PBS for the indicated times.” left out
as §4

A further experiment concerns cyclin D1. The experiment is described as follows: Immunoblotting of cyclin D1 protein in MCF-7 cells. The format is cell-based, human. The conditions noted are these: 72 hours. The procedure: as §3
(§5) Changes in protein expression from endogenous genes in MCF-7 cells treated for 72 hours with ligands was also evaluated.

Experiment [5] has as its system MCF-7 cells. The experiment is described as follows: Phase microscopy of cell number and morphology. The conditions noted are these: 6 days, 100 pM E2, 750 μM VPA, 10 nM OH-Tam. The class given is cell-based, human.
The test system of another experiment is ERα. The experiment is described as follows: Immunoblotting of ERα protein in MCF-7 cells. Conditions: 72 hours. The class given is cell-based, human. As to the method: as §3, §5
Experiment [6] concerns MCF-7 cells. The experiment can be described thus: Annexin V apoptosis assay. The format is cell-based, human. Conditions: 72 hours, absence of E2. The procedure:
Apoptosis. MCF-7 cells growing on coverslips were treated with ligands for 72 hours and unfixed cells were assayed with the Annexin-V-FLOUS Staining kit (Roche), according to manufacturer's instructions. Total cell number was determined by counting nuclei stained with Hoescht 33342 (Roche). Fluorescence was analyzed using a Zeiss Axioplan fluorescent microscope (Zeiss, Thomwood, N.Y.).

Structures can show the parent of a compound that is named as a salt. Where two headings read alike, the source gives them in different places.

This is an account of results in US20080085874A1, “SMALL MOLECULE POTENTIATOR OF HORMONAL THERAPY FOR BREAST CANCER” (The Regents of the University of California, priority 2006, published 2008).

As to `C[C@]12CC[C@@H]3c4ccc(O)cc4CC[C@H]3[C@@H]1CC[C@@H]2O` [E2, 17β-estradiol], the “cell numbers / proliferation” value in experiment [1] was “increase was observed in cell numbers”. Moreover, the “stimulation of ERE-Luc transcription” value in experiment [2] (100 pM E2, 24 hours) is given as “approximately 13 fold”. Moreover, in the experiment on Bcl-2, the Bcl-2 protein expression entry is “upregulated”.

In the case of `O=C(c1ccc(OCCN2CCCCC2)cc1)c1c(-c2ccc(O)cc2)sc2cc(O)ccc12` [Raloxifene, raloxifene], in the experiment on MCF-7 cells [3], the “E2-stimulated growth, antiestrogen alone” value is given as “substantially decreased E2-stimulated growth” and the “E2-stimulated growth, antiestrogen plus VPA” value is reported as “VPA further enhanced its inhibitory effect”.

In the case of `CC(/C=C/C(=O)NO)=C\[C@@H](C)C(=O)c1ccc(N(C)C)cc1` [TSA, trichostatin A], the IC50 with MCF-7 cells [3] (100 pM E2, day 7, read-out: IC50 (cell proliferation), HDAC inhibitor alone) turned out to be 0.051 µM; in the experiment on MCF-7 cells [3] (read-out: IC50 (cell proliferation), co-treatment with tamoxifen, with 10 nM OH-Tam, 100 pM E2, day 7) it was 0.032 µM. In the experiment on MCF-7 cells [3] (100 pM E2, day 7), the “effect of HDAC inhibitor on antiproliferative action of tamoxifen” value was “enhanced the antiproliferative action of tamoxifen”. Further, the ERE-Luc transcription entry in [2] (high concentrations, alone) is recorded as “induced transcription”.

Regarding `CCCC(CCC)C(=O)O` [VPA, valproic acid sodium salt (sodium 2-propylpentanoate)], the “addition of VPA to tamoxifen on E2-induced cell cycle progression” value in the experiment with MCF-7 cells [4] (E2 present) is on record as “did not yield a detectable change”. Moreover, the figures for the cell cycle distribution entry in the experiment on MCF-7 cells [4] (E2 present) and with MCF-7 cells [4] (absence of E2) were “had no effect” and “induced a small arrest in the G1 phase”, respectively. Further, in the experiment on MCF-7 cells [3] (750 μM VPA, 10 nM OH-Tam, 6-7 days, counted electronically), the E2-induced cell proliferation result was “inhibition by VPA was even more dramatic”. Moreover, the “effect of VPA on tamoxifen inhibition of cell proliferation” value in the experiment on MCF-7 cells [3] (750 μM VPA, OH-Tam 0 to 500 nM, 100 pM E2, day 6) is reported as “enhanced the relative efficacy of tamoxifen at all doses tested”. Besides, the cell proliferation entry in the experiment with MCF-7 cells [3] (750 μM VPA, without E2, 6-7 days, counted electronically) is “inhibited MCF 7 cells”; in the experiment on MCF-7/HER2 cells, “inhibited by VPA”. Besides, the inhibition at 750 µM in the experiment on MCF-7 cells [3] (Homo sapiens, MCF7, 144 h, 750 μM VPA alone, 100 pM E2, day 6, fluorescent DNA-binding assay, read-out: inhibition of E2-stimulated cell proliferation) was found to be 25%. The IC50 came out at 800 µM in the experiment with MCF-7 cells [3] (Homo sapiens, MCF7, 168 h, 100 pM E2, day 7, doses of VPA ranging from 50 μM to 5 M, read-out: IC50 (cell proliferation), HDAC inhibitor alone) and 500 µM in the experiment with MCF-7 cells [3] (Homo sapiens, MCF7, 168 h, read-out: IC50 (cell proliferation), tamoxifen co-treatment, with 10 nM OH-Tam, 100 pM E2, day 7). The “slowing of breast cancer cell growth in combination” value in the experiment with MCF-7 cells [3] (VPA 750 μM with rapamycin 0.05 nM, picropodophyllin 100 nM, tamoxifen 100 nM) was “combines effectively”; in the experiment on MCF-7 cells [3] (VPA 750 μM with rapamycin […], gefitinib 1 μM, with and without tamoxifen 100 nM), “combines effectively”. In addition, the “effect of HDAC inhibitor on antiproliferative action of tamoxifen” value with MCF-7 cells [3] (100 pM E2, day 7) is “enhanced the action of tamoxifen”. Also, in the experiment with MCF-7aro cells (750 μM VPA, regardless of the letrozole dose tested), the “testosterone-induced proliferation, VPA with letrozole” value is “inhibited proliferation more than that observed with letrozole alone”. For the same compound, the “effect of VPA on E2- and tamoxifen-induced proliferation” value in experiment [1] was “equally antagonized the proliferative effect of E2 and tamoxifen”. In [1], the “cell numbers / proliferation” value is recorded as “dramatically inhibited proliferation”. The ERE-Luc transcription result is “unable to activate transcription alone or in the presence of tamoxifen” in [2] (750 μM VPA, alone or with 10 nM OH-Tam) and “induced transcription” in experiment [2] (high concentrations, alone). For the same compound, the “E2-induced ERE-Luc transcriptional activity” value in experiment [2] (high dose of VPA alone, in the presence of E2) was “inhibited E2-induced transcriptional activity”. In the experiment on cyclin D1, the “cyclin D1 expression” value is given as “did not alter cyclin D1 expression”. Moreover, the “cell number and morphology by phase microscopy” value in the experiment on MCF-7 cells [5] is reported as “fewer cells as well as an increased number of floating cells”. Besides, the Bcl-2 protein expression result in the experiment on Bcl-2 is listed as “did not have any effect on Bcl-2 expression either alone or with tamoxifen”. The ERα protein expression result with ERα (only observed in the absence of E2) is reported as “slightly downregulated ERα protein expression”. For the same compound, in the experiment on ERα (VPA with tamoxifen, absence of E2), the “increased ERα expression seen with tamoxifen treatment” value is “attenuated the increased ERα expression”. Besides, the “AnnexinV positive cells (apoptotic index), % of total cell population” value in the experiment with MCF-7 cells [6] is “approximately 1.37%”.

With `NC(=O)N1c2ccccc2C=Cc2ccccc21` [carbamazepine], the “slowing of breast cancer cell growth in combination” value in the experiment with MCF-7 cells [3] (carbamazepine 50 μM with rapamycin 2 nM, picropodophyllin 100 nM, tamoxifen 10 nM) is reported as “combines effectively”.

In the case of `C[C@]12CC[C@@H]3c4ccc(O)cc4C[C@@H](CCCCCCCCC[S+]([O-])CCCC(F)(F)C(F)(F)F)[C@H]3[C@@H]1CC[C@@H]2O` (stereo partly drawn) [fulvestrant, Fulvestrant], in the experiment on MCF-7 cells [3], the “E2-stimulated growth, antiestrogen alone” value is “decreased E2-induced proliferation” and the “E2-stimulated growth, antiestrogen plus VPA” value is reported as “VPA did not further add to its inhibitory effect”. Besides, the “E2-stimulated growth, sub-saturating fulvestrant plus VPA” value with MCF-7 cells [3] (fulvestrant 1 to 5 nM plus VPA) was “VPA enhanced the anti-proliferative effect of lower doses of fulvestrant in a dose responsive manner”.

Consider `N#Cc1ccc(C(c2ccc(C#N)cc2)n2cncn2)cc1` [letrozole], for which the testosterone-induced proliferation entry in the experiment on MCF-7aro cells (1 nM testosterone) is on record as “inhibited testosterone-induced proliferation in a dose responsive manner”.
